Paper PMC7845594, “Novel Immune Modulators Enhance Caenorhabditis elegans Resistance to Multiple Pathogens” (mSphere, 2021)

Key:
CCRF-CEM = conditions: cited from earlier work
MOLT-4 = conditions: cited from earlier work
ESRE network = test: hsp-16.1p::GFP reporter (ESRE activation); type: in vivo, Caenorhabditis elegans; conditions: 50 or 100 μM, no pathogen
Description: Previous work from our lab has established that the ESRE network plays an important role in the resistance of C. elegans to pyoverdine, the main virulence determinant in liquid killing, and recent evidence has shown that ESRE activation depends on increased reactive oxygen species (ROS) ([23], [38], [39]). To evaluate ESRE activation, worms carrying an hsp-16.1p::GFP reporter (which contains two ESRE motifs and was previously used as an indicator of ESRE activation [[39][–][41]]), were exposed to 50 or 100 μM LK35, LK38, LK56, juglone (positive control), or DMSO. […] ROS level was assessed based on the fluorescence of dihydroethidium (DHE; a ROS-specific dye) using a COPAS FlowSort for flow vermimetry.
Young adult wild-type (A), hsp-4p::GFP (B), hsp-16.1p::GFP (C), or rpt-3::GFP (D) worms were incubated with LK molecules at 50 or 100 µM, DMSO control, or positive controls. For panel A, the worms were treated with compound for 10 h, and then the worms were stained with 4 µM DHE for 1 h before washing and fluorescence measurement. For panels B to D, the worms were treated with compound for 15 h prior to fluorescence measurement. Mean values from at least three biological replicates are shown. *, P < 0.05; **, P < 0.01; ***, P < 0.001 (compared to the solvent control). P values were calculated using Student’s t test. Error bars represent the standard error of the mean. […]

C. elegans transcriptome = test: Gene ontology enrichment (DAVID) of up-/downregulated genes; design: species or system Caenorhabditis elegans; conditions: upregulated genes, 100 µM, 8 h
Method: To gain additional insight into the effect of LK molecules on C. elegans, young-adult, wild-type worms were treated with each drug at 100 µM for 8 h in the absence of pathogen. RNA was collected, and transcriptome profiling was performed.
Supplementary file : TABLE S4 Enriched gene ontology categories. […] Redundant gene ontology categories were removed. Download Table S4, XLSX file, 0.02 MB.
Transcriptome profiling was performed on ∼6,000 wild-type, young adult worms incubated with either LK molecules or DMSO for 8 h. RNA isolation was performed using TRIzol extraction, followed by cleanup using RNeasy columns according to the manufacturer’s protocol. Each condition was analyzed in triplicate. Microarray data have been deposited in the GEO database, accession number GSE137516. […] Clustering and generation of the heat map was performed using Cluster 3.0 ([98]) and Treeview ([99]), respectively. Fold change of genes were normalized to average fold change of that gene over all clustered conditions. Genes and conditions were clustered using Euclidean distance and average linkages. […] Microarray data for non-LK molecules were collected from GEO omnibus. WormEXP was used as a secondary method for confirming statistical significance of potential pathways stimulated by each of the LK molecules ([100]). Gene ontologies were generated using DAVID ([101], [102]).

[1] = test system: GroEL and GroES families of bacterial chaperones; design: method as in PMID 27184767, PMID 24418775; conditions: cited from earlier work

COC(=O)/C=C/C(=O)Nc1ccccc1 [LK32]
LD50 (CCRF-CEM): ~40 µM | LD50 (MOLT-4): ~40 µM

O=c1cc(CNc2ccc(Br)cc2)nc2sccn12 [LK56]
ESRE activation (hsp-16.1p::GFP) (ESRE network): weak activation | Fold Enrichment, GO term Cytochrome P450 (C. elegans transcriptome): 12.9

CNC(=O)Oc1c(Br)cc2sc(=O)oc2c1Br [LK34]
Inhibition of GroEL and GroES chaperones [1]: potent inhibitor

CN(C)/N=N/c1ccc(-c2cn(Cc3ccccc3)cn2)cc1 [LK38]
Fold Enrichment, GO term Cytochrome P450 (C. elegans transcriptome): 12.2
